According to US20220378816A1, “2-BENZYLIDENE HYDRAZINOADENOSINE COMPOUNDS HAVING A2A ADENOSINE RECEPTOR AGONISTIC ACTIVITY” (ACADEMY OF MILITARY MEDICAL SCIENCES, priority 2019, published 2022):

Tests used:
[1] = molecular target: T1, (human) A2A adenosine receptors (Homo sapiens, UniProt P29274); test: Radioligand binding test ([3H]CGS21680 displacement, hA2A HEK-293 cell membranes); conditions: for Ki: calculated from IC50 by Cheng and Prusoff equation, [S] 25 nM, Km […] nM, read-out: Ki (inhibition constant)
T1 construct: purchased PerkinElmer Research Products (Boston, Mass.); host or cells: HEK-293
T1 sequence (P29274 whole entry): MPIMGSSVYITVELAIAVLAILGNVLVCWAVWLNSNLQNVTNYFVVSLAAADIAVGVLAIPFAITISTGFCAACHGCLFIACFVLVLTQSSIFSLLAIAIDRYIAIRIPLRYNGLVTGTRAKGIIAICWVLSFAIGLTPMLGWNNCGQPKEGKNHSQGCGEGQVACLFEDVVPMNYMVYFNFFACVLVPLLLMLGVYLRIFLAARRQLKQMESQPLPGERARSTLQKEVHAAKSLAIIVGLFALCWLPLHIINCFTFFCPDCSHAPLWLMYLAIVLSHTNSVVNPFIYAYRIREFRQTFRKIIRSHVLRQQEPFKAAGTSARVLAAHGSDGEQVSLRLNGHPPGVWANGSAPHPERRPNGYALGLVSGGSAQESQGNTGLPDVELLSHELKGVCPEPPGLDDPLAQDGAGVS
Procedure: Cell membranes stably transfected with (human) A2A adenosine receptors were prepared in HEK-293 cells. The cell membranes were obtained from PerkinElmer Research Products (Boston, Mass.).
The A2A adenosine receptors used were all expressed in the cell membranes. […] (final 25 nM) was added to the diluted cell membrane, and mixed well. 50 μL of the prepared dilution solution of cell membrane was transferred to the 384-well Opti-plate containing compound and incubated at 25° C. for 90 minutes. 100 μL of 0.5% Polyethyleneimine solution (PEI) was added to […]-96 GF/B filter plate, and soaked for 90 minutes at 4° C., then 500 μL of washing buffer/well (50 mM Tris-HCl pH 7.4, 154 mM NaCl) was transferred with Cell Harvester to wash the […]-96 GF/B filter plate twice. The mixed system in the Opti-plate was transferred to the washed […]-96 GF/B filter plate, 500 μL of washing buffer/well (50 mM Tris-HCl pH 7.4, 154 mM NaCl) was used to wash the […]-96 GF/B filter plate 9 times. Incubation was performed in 37° C. incubator for 3 minutes. 40 μL of ULTIMA GOLD scintillation solution (Perkin Elmer, Cat #77-16061) was added to each well, CPM (count per minute) value was read by a MicroBeta liquid scintillation counter (PerkinElmer).

Compound | IC50 [1] [nM] | Ki [1] [nM] | melting point [°C]
CC(=O)Nc1ccc(/C=N/Nc2nc(N)c3ncn([C@@H]4O[C@H](CO)[C@@H](O)[C@H]4O)c3n2)cc1 [Compound 1, N-{4-{(E)-{2-{6-amino-9-[(2R,3R,4S,5R)-3,4-dihydroxy-5-(hydroxymethyl)tetrahydrofuran-2-yl]-9H-purin-2-yl}hydrazono}methyl}phenyl}acetamide] | 2840 | 1330 | 126
Nc1nc(N/N=C/c2ccc(C(F)(F)F)cc2C(F)(F)F)nc2c1ncn2[C@@H]1O[C@H](CO)[C@@H](O)[C@H]1O [Compound 3, (2R,3R,4S,5R)-2-{6-amino-2-{2-[(E)-2,4-bis(trifluoromethyl)benzylidene]hydrazino}-9H-purin-9-yl}-5-(hydroxymethyl)tetrahydrofuran-3,4-diol] | > 10000 |  | 239
Nc1nc(N/N=C/c2ccc(Cl)c(C(F)(F)F)c2)nc2c1ncn2[C@@H]1O[C@H](CO)[C@@H](O)[C@H]1O [Compound 7, (2R,3R,4S,5R)-2-{6-amino-2-{2-[(E)-4-chloro-3-(trifluoromethyl)benzylidene]hydrazino}-9H-purin-9-yl}-5-(hydroxymethyl)tetrahydrofuran-3,4-diol] | 1710 | 801 | 242
Nc1nc(N/N=C/c2ccc(N3CCCC3)cc2)nc2c1ncn2[C@@H]1O[C@H](CO)[C@@H](O)[C@H]1O [Compound 10, (2R,3R,4S,5R)-2-{6-amino-2-{2-[(E)-4-(pyrrolidin-1-yl)benzylidene]hydrazino}-9H-purin-9-yl}-5-(hydroxymethyl)tetrahydrofuran-3,4-diol] | > 10000 |  | 174
Nc1nc(N/N=C/c2ccc(-n3ccnc3)cc2)nc2c1ncn2[C@@H]1O[C@H](CO)[C@@H](O)[C@H]1O [Compound 12, (2R,3R,4S,5R)-2-{2-{2-[(E)-4-(1H-imidazol-1-yl)benzylidene]hydrazino}-6-amino-9H-purin-9-yl}-5-(hydroxymethyl)tetrahydrofuran-3,4-diol] | 462 | 216 | 276
N#Cc1ccccc1/C=N/Nc1nc(N)c2ncn([C@@H]3O[C@H](CO)C(O)C3O)c2n1 (some centres unmarked) [Compound 14] |  |  | 260

More lines, now with the values ahead:

IC50 [1] [nM] | Ki [1] [nM] | melting point [°C] | Compound
142 | 66.7 | 184 | Nc1nc(N/N=C/c2ccc(N(c3ccccc3)c3ccccc3)cc2)nc2c1ncn2[C@@H]1O[C@H](CO)[C@@H](O)[C@H]1O [Compound 4, (2R,3R,4S,5R)-2-{6-amino-2-{2-[(E)-4-(diphenylamino)benzylidene]hydrazino}-9H-purin-9-yl}-5-(hydroxymethyl)tetrahydrofuran-3,4-diol]
369 | 173 | 148 | Nc1nc(N/N=C/c2cccc(OCc3ccccc3)c2)nc2c1ncn2[C@@H]1O[C@H](CO)[C@@H](O)[C@H]1O [Compound 6, (2R,3R,4S,5R)-2-{6-amino-2-{2-[(E)-3-(benzyloxy)benzylidene] hydrazino}-9H-purin-9-yl}-5-(hydroxymethyl)tetrahydrofuran-3,4-diol]
445 | 208 | 164 | Nc1nc(N/N=C/c2ccc(-c3ccccn3)cc2)nc2c1ncn2[C@@H]1O[C@H](CO)[C@@H](O)[C@H]1O [Compound 8, (2R,3R,4S,5R)-2-{6-amino-2-{2-[(E)-4-(pyridin-2-yl)benzylidene] hydrazino}-9H-purin-9-yl}-5-(hydroxymethyl)tetrahydrofuran-3,4-diol]
131 | 61.3 | 260 | Nc1nc(N/N=C/c2ccc(C(F)(F)F)cc2)nc2c1ncn2[C@@H]1O[C@H](CO)[C@@H](O)[C@H]1O [Compound 11, (2R,3R,4S,5R)-2-{6-amino-2-{2-[(E)-4-(trifluoromethyl)benzylidene]hydrazino}-9H-purin-9-yl)-5-(hydroxymethyl)tetrahydrofuran-3,4-diol]
